Data as given in patent publication US20210301038A1, “POLYSIALIC ACID AND DERIVATIVES THEREOF, PHARMACEUTICAL COMPOSITION AND METHOD OF PRODUCING POLYSIALIC ACID” (Medizinische Hochschule Hannover (MHH), priority 2018, published 2021).

Tests used:
[1] = tested on: layer II/III - layer V synapses in mPFC slices; assay: TBS-induced LTP (fEPSP) in sham- and endoNF-treated mPFC slices from C57BL/6 mice; assay type: cell-based, mouse; conditions: for LTP level 50-60 min after TBS: endoNF-treated slices, Ro 25-6981 0.3 μM, DP12 1 μg/ml, DP5 1 or 10 μg/ml, sarcosine 0.75 mM, SSR 504734 3 μM
Method: (§1) For endoNF treatment in C57BL/6J mice, slices were first allowed to recover for 20 min at room temperature (22-24° C.) in recording aCSF and were then placed in a 24-well plate to be incubated in 2 ml of aCSF without (sham) or with addition of endoNF (10 μg/ml) at 35° C. for 2 hours. The 24-well plate was installed in a water bath (ED, Julabo, Seelbach, Germany). For field excitatory postsynaptic potential (fEPSP) recordings in knockout and transgenic mice, mPFC slices were incubated in recording aCSF for >2 hours at room temperature before recordings. For patch-clamp recordings in knockout mice, slices were incubated first at 35° C. for 20 min and then at room temperature for >30 min before recordings started. The aCSF was continuously gassed with 95% O2/5% CO2 during all incubation steps and recordings.
(§2) Prefrontal slices (400 μm) were transferred to a submerged-type recording MC membrane chamber (volume 2 ml; Scientific Systems Design Inc., Mississauga, Ontario, Canada) perfused with oxygenated recording ACSF at a flow rate of 4 ml/min and maintained at room temperature (22-25° C.), unless stated otherwise in the “Results”-section given below. Field EPSPs were evoked and recorded using thin-walled glass electrodes (borosilicate glass, wall thickness 0.188, length 100, and outer diameter 1.5 mm, Hilgenberg, Malsfeld, Germany) filled with recording aCSF in 400 μm-thick mPFC slices. In order to stimulate electrically the input fibers of pyramidal cells, the stimulation electrode (0.3-0.5 MΩ) was inserted into layers II/III of the prelimbic cortex. The recording electrode (2-2.5 MΩ) was placed in the vicinity of dendrites and cell bodies of pyramidal neurons in layer V (Huang et al., 2004).
(§3) Before LTP induction, basal synaptic transmission was recorded in each slice and the relationship between stimulus intensity and fEPSP slope was measured. Basal fEPSPs were evoked at 0.05 Hz for at least 10 min. The supramaximal slope was determined by gradually increasing the stimulation intensity until a population spike in the fEPSP became first visible. The stimulation intensity was adjusted to elicit a basal fEPSP with a slope of approximately 50% of the supramaximal value.
(§4) LTP was induced by application of five trains of theta-burst stimulation (TBS) with an inter-theta-train interval of 20 s (Brennaman et al., 2011). Each train consisted of 8 bursts delivered at 5 Hz. Each burst consisted of four pulses delivered at 100 Hz. Duration of pulses was 0.2 ms. For calculation of the LTP level, the mean fEPSP slope was measured between 50-60 min after TBS delivery, and it was then normalized to mean baseline fEPSP slope during 0-10 min before TBS. Stimulus artifacts in representative fEPSP examples in figures were blanked to facilitate the perception of fEPSPs recorded in the mPFC. Recording and analysis of LTP in St8Sia4^−/− mice was performed in a blind manner.
The enzyme endosialidase NF (endoNF) (Stummeyer et al., 2005) and the short form of polysialic acid composed of 10 or twelve sialic acid residues (DP10 and DP12) were purified as described previously (Keys et al., 2014). Sialic acid (N-acetylneuraminic acid, DP1) and the pentamer of sialic acid sodium salt (DP5) were obtained from EY Laboratories (San Mateo, Calif., USA). DMB-labelled DP2 and DP12, and non-labelled avDP10-9OAc were synthesized in the laboratory of Rita Gerardy-Schahn (see sections Synthesis of DMB-DP2 and DMB-DP12 and Synthesis of avDP10-9OAc, respectively). […]

[2] = tested on: mPFC slices from St8sia4−/− mice; assay: TBS-induced LTP in mPFC slices from ST8SIA4-deficient mice and wild-type littermates; assay type: cell-based, mouse; conditions: Ro 25-6981 0.3 μM, DP12 1 μg/ml, sarcosine 0.75 mM; for LTP magnitude: St8sia4+/+ mice; for LTP level 50-60 min after TBS: St8sia4−/− mice
Method: as §1, §2, §3, §4

Row | Compound | LTP level 50-60 min after TBS [1] | LTP magnitude ([1]; sham-treated slices, 0.3 μM) | LTP magnitude [2] | LTP level 50-60 min after TBS [2]
1 | C[C@@H](CN1CCC(Cc2ccccc2)CC1)[C@@H](O)c1ccc(O)cc1.O=C(O)/C=C\C(=O)O [Ro 25-6981, (αR,βS)-α-(4-hydroxyphenyl)-β-methyl-4-(phenylmethyl)-1-piperidinepropanol maleate] | full restoration of LTP levels | no effect | no effect | full restoration of LTP levels
2 | (α(2→8)Neu5Ac)12 [DP12] | full restoration of LTP levels | – | no effect | full restoration of LTP levels
